In ChEMBL document CHEMBL1909046, “DrugMatrix in vitro pharmacology data”:

Tests used:
[1] = molecular target: T1, 5-hydroxytryptamine receptor 1A (Rattus norvegicus, UniProt P19327); assay type: cell membranes, CHO-K1, Membrane; details: cho-k1; note: in other assays of this panel Not Active means under 50% inhibition at 10 µM
T1 sequence (P19327 whole entry): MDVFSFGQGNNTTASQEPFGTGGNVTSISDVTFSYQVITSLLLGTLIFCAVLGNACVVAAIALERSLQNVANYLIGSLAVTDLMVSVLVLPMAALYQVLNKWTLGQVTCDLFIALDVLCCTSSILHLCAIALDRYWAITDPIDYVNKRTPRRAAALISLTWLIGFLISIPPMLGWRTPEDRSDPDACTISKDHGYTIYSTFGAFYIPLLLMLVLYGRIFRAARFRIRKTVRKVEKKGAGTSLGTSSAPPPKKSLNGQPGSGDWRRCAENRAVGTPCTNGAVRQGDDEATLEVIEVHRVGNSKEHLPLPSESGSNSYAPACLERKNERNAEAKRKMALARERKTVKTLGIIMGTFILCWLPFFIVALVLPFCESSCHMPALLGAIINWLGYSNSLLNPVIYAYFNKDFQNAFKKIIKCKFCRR

Leukotriene C4 synthase = molecular target: T2, Leukotriene C4 synthase (Cavia porcellus, UniProt A6XA80); assay: biochemical; assay type: tissue-based, Lung;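 note: enzyme inhibition assay of leukotriene C4 synthase, using LTA4 as the substrate; in other assays of this panel Not Active means under 50% inhibition at 10 µM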
T2 sequence (A6XA80 whole entry): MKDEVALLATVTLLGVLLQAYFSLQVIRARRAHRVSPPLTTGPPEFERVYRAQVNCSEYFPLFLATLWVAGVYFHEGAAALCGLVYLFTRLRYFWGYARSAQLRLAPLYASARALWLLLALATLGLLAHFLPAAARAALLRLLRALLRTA

Cytochrome P450 3A4 = Cytochrome P450 3A4 (Homo sapiens, UniProt P08684); details: bti-tn-5b1-4; note: in other assays of this panel Not Active means under 50% inhibition at 10 µM
Cytochrome P450 3A4, sequence (P08684 whole entry): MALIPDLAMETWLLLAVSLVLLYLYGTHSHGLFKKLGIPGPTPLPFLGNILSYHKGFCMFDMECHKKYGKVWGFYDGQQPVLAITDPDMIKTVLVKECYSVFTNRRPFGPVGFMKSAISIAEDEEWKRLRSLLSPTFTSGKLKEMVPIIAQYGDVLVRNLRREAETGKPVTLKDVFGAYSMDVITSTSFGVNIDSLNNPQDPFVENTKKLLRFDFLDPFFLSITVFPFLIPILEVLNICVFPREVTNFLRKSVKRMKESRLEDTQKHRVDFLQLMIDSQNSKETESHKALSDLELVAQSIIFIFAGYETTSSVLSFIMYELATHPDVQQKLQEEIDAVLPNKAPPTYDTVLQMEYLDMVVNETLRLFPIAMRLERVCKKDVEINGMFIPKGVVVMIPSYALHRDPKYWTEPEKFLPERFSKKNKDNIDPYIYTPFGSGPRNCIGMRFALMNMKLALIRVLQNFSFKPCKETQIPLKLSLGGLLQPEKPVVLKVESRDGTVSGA

[2] = DRUGMATRIX: beta-Lactamase enzyme inhibition (substrate: Nitrocefin); design: species or system Bacillus cereus; details: Not Active = under 50% inhibition at 10 µM
[3] = molecular target: T3, Alpha-1B adrenergic receptor (Rattus norvegicus, UniProt P15823); assay: DRUGMATRIX: Alpha-1B adrenergic receptor radioligand binding (ligand: prazosin); assay type: cell membranes, Wistar, Liver, Membrane; details: Not Active = under 50% inhibition at 10 µM
T3 sequence (P15823 whole entry): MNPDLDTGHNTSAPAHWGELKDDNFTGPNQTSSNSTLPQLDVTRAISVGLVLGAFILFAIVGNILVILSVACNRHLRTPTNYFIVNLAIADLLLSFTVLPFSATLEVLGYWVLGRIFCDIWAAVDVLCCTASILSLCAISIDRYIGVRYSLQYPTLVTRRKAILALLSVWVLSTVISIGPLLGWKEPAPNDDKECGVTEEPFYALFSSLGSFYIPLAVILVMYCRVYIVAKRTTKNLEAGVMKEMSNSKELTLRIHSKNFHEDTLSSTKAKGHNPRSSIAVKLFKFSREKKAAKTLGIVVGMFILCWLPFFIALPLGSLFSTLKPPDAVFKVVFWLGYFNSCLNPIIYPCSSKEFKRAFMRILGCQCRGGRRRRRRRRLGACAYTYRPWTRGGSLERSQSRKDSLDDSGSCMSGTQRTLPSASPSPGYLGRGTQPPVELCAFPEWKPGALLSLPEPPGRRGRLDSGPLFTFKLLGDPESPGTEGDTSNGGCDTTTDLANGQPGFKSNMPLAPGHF

Vasopressin V1a receptor = Vasopressin V1a receptor (Homo sapiens, UniProt P37288); assay type: cell membranes, Membrane; details: hek293; note: in other assays of this panel Not Active means under 50% inhibition at 10 µM
Vasopressin V1a receptor, sequence (P37288 whole entry): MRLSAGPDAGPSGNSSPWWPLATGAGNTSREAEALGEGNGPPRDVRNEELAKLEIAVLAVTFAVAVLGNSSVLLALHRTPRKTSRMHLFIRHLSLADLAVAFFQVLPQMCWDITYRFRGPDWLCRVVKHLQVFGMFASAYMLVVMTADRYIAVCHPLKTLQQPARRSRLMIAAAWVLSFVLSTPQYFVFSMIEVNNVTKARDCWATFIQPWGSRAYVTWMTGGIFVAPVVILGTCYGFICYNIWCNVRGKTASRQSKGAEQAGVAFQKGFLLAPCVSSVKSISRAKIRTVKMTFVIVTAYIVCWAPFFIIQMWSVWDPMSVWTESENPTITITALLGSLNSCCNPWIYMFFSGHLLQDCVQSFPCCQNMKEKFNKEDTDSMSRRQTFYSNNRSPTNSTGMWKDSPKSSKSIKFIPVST

[4] = molecular target: T4, Alpha-2C adrenergic receptor (Homo sapiens, UniProt P18825); assay: DRUGMATRIX: Adrenergic Alpha-2C radioligand binding (ligand: [3H] MK-912); assay type: cell membranes, Sf9, Membrane; details: sf9
T4 sequence (P18825 whole entry): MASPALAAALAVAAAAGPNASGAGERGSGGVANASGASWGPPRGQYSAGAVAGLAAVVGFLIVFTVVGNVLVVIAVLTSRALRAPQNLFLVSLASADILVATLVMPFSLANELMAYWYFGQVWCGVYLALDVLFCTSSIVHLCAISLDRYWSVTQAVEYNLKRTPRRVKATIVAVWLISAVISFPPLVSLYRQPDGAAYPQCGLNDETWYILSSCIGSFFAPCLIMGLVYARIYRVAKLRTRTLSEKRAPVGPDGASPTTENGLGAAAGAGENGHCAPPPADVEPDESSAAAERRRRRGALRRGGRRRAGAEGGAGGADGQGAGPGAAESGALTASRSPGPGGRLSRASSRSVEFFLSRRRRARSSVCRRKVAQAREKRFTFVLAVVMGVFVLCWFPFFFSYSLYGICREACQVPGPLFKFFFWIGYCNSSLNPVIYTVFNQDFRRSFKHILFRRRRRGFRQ

[5] = molecular target: Voltage-gated inwardly rectifying potassium channel KCNH2 (Homo sapiens, UniProt Q12809); details: hek293; note: in other assays of this panel Not Active means under 50% inhibition at 10 µM
Voltage-gated inwardly rectifying potassium channel KCNH2, sequence (Q12809 whole entry): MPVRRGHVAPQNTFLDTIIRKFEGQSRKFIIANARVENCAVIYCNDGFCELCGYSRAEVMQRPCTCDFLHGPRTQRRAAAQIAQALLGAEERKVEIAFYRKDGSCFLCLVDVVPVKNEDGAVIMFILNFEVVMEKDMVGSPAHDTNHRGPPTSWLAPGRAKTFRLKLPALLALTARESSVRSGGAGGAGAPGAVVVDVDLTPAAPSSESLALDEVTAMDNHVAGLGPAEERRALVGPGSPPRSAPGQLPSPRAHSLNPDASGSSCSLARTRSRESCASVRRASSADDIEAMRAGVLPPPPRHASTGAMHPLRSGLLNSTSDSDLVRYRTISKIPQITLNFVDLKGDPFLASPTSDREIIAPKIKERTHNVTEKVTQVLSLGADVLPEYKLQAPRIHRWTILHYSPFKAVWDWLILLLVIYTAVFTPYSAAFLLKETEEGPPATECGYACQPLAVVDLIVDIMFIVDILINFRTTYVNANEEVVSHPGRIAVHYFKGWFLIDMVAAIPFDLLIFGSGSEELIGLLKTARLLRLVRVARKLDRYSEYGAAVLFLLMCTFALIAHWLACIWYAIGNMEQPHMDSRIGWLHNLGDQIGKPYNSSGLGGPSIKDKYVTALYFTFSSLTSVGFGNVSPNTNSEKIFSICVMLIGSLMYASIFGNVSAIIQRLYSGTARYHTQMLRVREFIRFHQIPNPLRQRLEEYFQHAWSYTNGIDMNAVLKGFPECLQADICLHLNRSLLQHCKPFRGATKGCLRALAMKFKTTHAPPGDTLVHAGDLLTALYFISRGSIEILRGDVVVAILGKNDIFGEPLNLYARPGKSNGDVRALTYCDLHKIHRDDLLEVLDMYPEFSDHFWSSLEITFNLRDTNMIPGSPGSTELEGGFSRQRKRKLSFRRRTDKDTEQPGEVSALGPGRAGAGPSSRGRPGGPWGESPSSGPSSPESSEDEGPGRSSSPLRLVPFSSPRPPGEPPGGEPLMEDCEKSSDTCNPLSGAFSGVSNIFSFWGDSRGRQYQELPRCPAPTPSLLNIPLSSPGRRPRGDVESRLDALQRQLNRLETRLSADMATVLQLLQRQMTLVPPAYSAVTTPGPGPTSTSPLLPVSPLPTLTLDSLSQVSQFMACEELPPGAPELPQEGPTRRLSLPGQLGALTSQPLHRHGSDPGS

[6] = molecular target: cGMP-specific 3',5'-cyclic phosphodiesterase (Homo sapiens, UniProt O76074); assay: DRUGMATRIX: Phosphodiesterase PDE5 enzyme inhibition (substrate: [3H]cGMP + cGMP); assay type: tissue-based, Platelet; details: platelet; Not Active = under 50% inhibition at 10 µM
[7] = DRUGMATRIX: Atrial Natriuretic Factor (ANF) radioligand binding (ligand: [125I] ANF (rat)); assay type: cell membranes, Cavia porcellus, Dunkin-Hartley, Adrenal gland, Membrane; details: Not Active = under 50% inhibition at 10 µM
Acetylcholinesterase = Acetylcholinesterase (Homo sapiens, UniProt P22303); assay: DRUGMATRIX: Acetylcholinesterase enzyme inhibition (substrate: acetylthiocholine); assay type: cell-based, HEK293; details: hek293; Not Active = under 50% inhibition at 10 µM
Acetylcholinesterase, sequence (P22303 whole entry): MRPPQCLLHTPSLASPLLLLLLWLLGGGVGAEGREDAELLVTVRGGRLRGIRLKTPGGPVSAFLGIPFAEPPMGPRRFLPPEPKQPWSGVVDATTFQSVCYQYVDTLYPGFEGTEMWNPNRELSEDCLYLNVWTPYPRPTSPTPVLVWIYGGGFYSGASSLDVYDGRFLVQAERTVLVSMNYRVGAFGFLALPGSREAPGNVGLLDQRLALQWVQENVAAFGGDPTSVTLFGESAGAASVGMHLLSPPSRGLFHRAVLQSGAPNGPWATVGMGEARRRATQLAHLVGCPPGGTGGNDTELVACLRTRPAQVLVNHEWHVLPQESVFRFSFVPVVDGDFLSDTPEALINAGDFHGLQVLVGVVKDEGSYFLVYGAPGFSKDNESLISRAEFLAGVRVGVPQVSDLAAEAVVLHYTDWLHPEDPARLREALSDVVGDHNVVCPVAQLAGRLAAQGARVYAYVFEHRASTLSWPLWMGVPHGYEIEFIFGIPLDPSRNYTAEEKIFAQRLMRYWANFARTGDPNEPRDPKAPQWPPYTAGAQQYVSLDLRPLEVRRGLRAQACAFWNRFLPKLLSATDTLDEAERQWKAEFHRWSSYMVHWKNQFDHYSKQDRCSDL

[8] = DRUGMATRIX: GABAA, Chloride Channel, TBOB radioligand binding (ligand: [3H] TBOB); assay type: cell membranes, Rattus norvegicus, Wistar, Cerebral cortex, Membrane; details: Not Active = under 50% inhibition at 10 µM
[9] = DRUGMATRIX: Calcium Channel Type L, Benzothiazepine radioligand binding (ligand: [3H] Diltiazem); assay type: cell membranes, Rattus norvegicus, Wistar, Brain, Membrane; details: Not Active = under 50% inhibition at 10 µM
[10] = molecular target: C-C chemokine receptor type 2 (Homo sapiens, UniProt P41597); assay type: cell membranes, CHO-K1, Membrane; details: cho-k1; note: in other assays of this panel Not Active means under 50% inhibition at 10 µM
C-C chemokine receptor type 2, sequence (P41597 whole entry): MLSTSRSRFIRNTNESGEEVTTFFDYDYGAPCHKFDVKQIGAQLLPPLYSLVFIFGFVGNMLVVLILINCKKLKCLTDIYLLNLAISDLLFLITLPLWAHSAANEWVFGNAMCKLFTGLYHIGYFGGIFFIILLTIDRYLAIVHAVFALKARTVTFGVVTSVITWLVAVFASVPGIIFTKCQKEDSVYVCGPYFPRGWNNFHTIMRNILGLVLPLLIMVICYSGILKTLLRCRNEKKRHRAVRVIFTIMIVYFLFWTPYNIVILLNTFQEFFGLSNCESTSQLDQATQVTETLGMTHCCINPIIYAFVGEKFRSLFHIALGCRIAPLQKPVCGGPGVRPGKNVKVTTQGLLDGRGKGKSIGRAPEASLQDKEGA

[11] = DRUGMATRIX: Calcium Channel Type L, Dihydropyridine radioligand binding (ligand: [3H] Nitrendipine); assay type: cell membranes, Rattus norvegicus, Wistar, Cerebral cortex, Membrane; details: Not Active = under 50% inhibition at 10 µM
[12] = DRUGMATRIX: Serotonin (5-Hydroxytryptamine) 5-HT3 radioligand binding (ligand: [3H] GR-65630); assay type: cell membranes, Membrane; details: hek293; Not Active = under 50% inhibition at 10 µM

CCOC(=O)OC(C)OC1=C(C(=O)Nc2ccccn2)N(C)S(=O)(=O)c2ccccc21 (stereo not drawn) [AMPIROXICAM]
Not Active: IC50 [1] | IC50 (Leukotriene C4 synthase) | IC50 (Cytochrome P450 3A4) | Ki (Cytochrome P450 3A4) | IC50 [2] | Ki [2] | IC50 [3] | IC50 (Vasopressin V1a receptor) | IC50 [4] | IC50 [5] | Ki [5] | IC50 [6] | IC50 [7] | Ki [7] | IC50 (Acetylcholinesterase) | IC50 [8] | Ki [8] | IC50 [9] | Ki [9] | IC50 [10] | IC50 [11] | Ki [11] | IC50 [12] | Ki [12]

COCc1c(C(C)C)nc(C(C)C)c(/C=C/[C@@H](O)C[C@@H](O)CC(=O)O)c1-c1ccc(F)cc1 [CERIVASTATIN]
Not Active: IC50 [1] | IC50 (Leukotriene C4 synthase) | IC50 (Cytochrome P450 3A4) | Ki (Cytochrome P450 3A4) | IC50 [2] | Ki [2] | IC50 [3] | IC50 (Vasopressin V1a receptor) | IC50 [4] | IC50 [5] | Ki [5] | IC50 [6] | IC50 [7] | Ki [7] | IC50 (Acetylcholinesterase) | IC50 [8] | Ki [8] | IC50 [9] | Ki [9] | IC50 [10] | IC50 [11] | Ki [11] | IC50 [12] | Ki [12]

O=C1NC(=O)C(c2ccccc2)(c2ccccc2)N1 [PHENYTOIN]
Not Active: IC50 [1] | IC50 (Leukotriene C4 synthase) | IC50 (Cytochrome P450 3A4) | Ki (Cytochrome P450 3A4) | IC50 [2] | Ki [2] | IC50 [3] | IC50 (Vasopressin V1a receptor) | IC50 [4] | IC50 [5] | Ki [5] | IC50 [6] | IC50 [7] | Ki [7] | IC50 (Acetylcholinesterase) | IC50 [8] | Ki [8] | IC50 [9] | Ki [9] | IC50 [10] | IC50 [11] | Ki [11] | IC50 [12] | Ki [12]

O=C1CCc2cc(OCCCCc3nnnn3C3CCCCC3)ccc2N1 [CILOSTAZOL]
Not Active: IC50 [1] | IC50 (Leukotriene C4 synthase) | IC50 (Cytochrome P450 3A4) | Ki (Cytochrome P450 3A4) | IC50 [2] | Ki [2] | IC50 [3] | IC50 (Vasopressin V1a receptor) | IC50 [4] | IC50 [5] | Ki [5] | IC50 [6] | IC50 [7] | Ki [7] | IC50 (Acetylcholinesterase) | IC50 [8] | Ki [8] | IC50 [9] | Ki [9] | IC50 [10] | IC50 [11] | Ki [11] | IC50 [12] | Ki [12]

C=C1CC[C@H](O)C/C1=C/C=C1\CCC[C@]2(C)[C@@H]([C@H](C)/C=C/[C@H](C)C(C)C)CC[C@@H]12 [ERGOCALCIFEROL]
Not Active: IC50 [1] | IC50 (Leukotriene C4 synthase) | IC50 (Cytochrome P450 3A4) | Ki (Cytochrome P450 3A4) | IC50 [2] | Ki [2] | IC50 [3] | IC50 (Vasopressin V1a receptor) | IC50 [4] | IC50 [5] | Ki [5] | IC50 [6] | IC50 [7] | Ki [7] | IC50 (Acetylcholinesterase) | IC50 [8] | Ki [8] | IC50 [9] | Ki [9] | IC50 [10] | IC50 [11] | Ki [11] | IC50 [12] | Ki [12]

CN1C(C(=O)Nc2ccccn2)=C(O)c2ccccc2S1(=O)=O [PIROXICAM]
Not Active: IC50 [1] | IC50 (Leukotriene C4 synthase) | IC50 (Cytochrome P450 3A4) | Ki (Cytochrome P450 3A4) | IC50 [2] | Ki [2] | IC50 [3] | IC50 (Vasopressin V1a receptor) | IC50 [4] | IC50 [5] | Ki [5] | IC50 [6] | IC50 [7] | Ki [7] | IC50 (Acetylcholinesterase) | IC50 [8] | Ki [8] | IC50 [9] | Ki [9] | IC50 [10] | IC50 [11] | Ki [11] | IC50 [12] | Ki [12]

CCc1ccc(C(=O)C(C)CN2CCCCC2)cc1 (stereo not drawn) [EPERISONE]
Not Active: IC50 [1] | IC50 (Leukotriene C4 synthase) | IC50 (Cytochrome P450 3A4) | Ki (Cytochrome P450 3A4) | IC50 [2] | Ki [2] | IC50 [3] | IC50 (Vasopressin V1a receptor) | IC50 [4] | IC50 [5] | Ki [5] | IC50 [6] | IC50 [7] | Ki [7] | IC50 (Acetylcholinesterase) | IC50 [8] | Ki [8] | IC50 [9] | Ki [9] | IC50 [10] | IC50 [11] | Ki [11] | IC50 [12] | Ki [12]
